Test results as given in patent US20020058628A1, “Antioxidants and intracellular glutathione raising agents for therapeutic treatments” (priority 1998, published 2002).
“Also recorded” adds a separate entry of the source.

Experiments:
[1] = test system: embryonic sensory neurons; assay: Rescue of embryonic sensory neurons from apoptosis by NGF+NAC; type: cell-based; details: NAC + 1 or 10 ng/ml NGF on days 1 and 2, labeled on day 3; depending on NAC and NGF concentrations
Method: Cultures of embryonic sensory neurons were generated according to methods described in Groves et al., Dev. Biol., 159:87-104, (1993), the contents of which are incorporated herein by reference. The cells were exposed to sub-optimal doses of NGF. As shown in FIG. 4 cultures exposed to NAC and either 1 or 10 ng/ml NGF on days 1 and 2 and labeled on day 3 contained 300-1000% more neurons than those exposed to NGF alone, depending upon the concentrations of NAC and NGF applied.
Neurons were defined by morphology and by labeling with the TUJI antibody against β-tubuli (Groves, A. K., et al., Dev. Biol., 159:87-104 (1993); Moody, S. Q., et al., J. Comp. Neurol., 279:567-580 (1989)) cultures were in DMEM-BS. There was no BrdU labeling of neurons, nor was there any correlation between the extent of BrdU labeling in non-neuronal populations and the number of neurons present (data not shown). Analysis of DNA synthesis by BrdU incorporation (Gatzner, H. G., et al., Science, 318:474-475 (1982) confirmed that this increase in neuronal number was not due to cell division, strongly implicating differential cell death as the reason for the difference.
Values shown are means+/−SD for quadruplicate coverslips from the one of four experiments, all of which yielded similar results.

oligodendrocytes = assay: Rescue of purified oligodendrocytes from apoptosis induced by switch to DMEM alone (trophic factor withdrawal); details: for enhancement of survival factor (IFN-γ) activity compared with NAC: co-exposure with survival factor
Method: After 3 days of growth in DMEM-BS, the resulting cultures of pure oligodendrocytes were switched to DMEM alone, a condition that induces apoptosis unless cells are exposed to appropriate growth factors.
Cells were then switched to DMEM alone, supplemented with 10, 50 or 500 u/ml of interferon-γ, and the number of surviving cells present after a further three days was determined by MTT staining.
After 3 days in DMEM-BS, the resulting cultures of pure oligodendrocyte were switched to DMEM alone to which was added progesterone+/−1 mM NAC (FIG. 9).
After 3 days in DMEM-BS, the resulting cultures of pure oligodendrocytes were switched to DMEM alone to which was added 10 μM Trolox+/−1 mM NAC (FIG. 10).
After 3 days in DMEM-BS, the resulting cultures of pure oligodendrocyte were switched to DMEM alone to which was added (a) progesterone (63 ug/ml)+NAC (1 mM)+trolox (100 uM)+Vitamin C (10 uM) (“combination”) or (b) CNTF (10 ng/ml)+IGF-1 (50 ng/ml)+NT-3 (5 ng/ml) (“combination”).
In all conditions, the 100% value corresponds to the cell survival seen in cultures of oligodendrocyte not subjected to trophic factor withdrawal.
After 3 days in DMEM-BS, the resulting cultures of pure oligodendrocytes were switched to DMEM alone to which was added progesterone.
Purified oligodendrocytes were generated and grown as in previous examples. 3 days after plating, cells were switched either directly to the indicated conditions (open bars) or were first switched to DMEM alone for 24 hr before the indicated factors were added in an attempt to rescue the cells (black bars). Cells were counted 3 days after switch to the indicated conditions.

0-2A progenitor cells = assay: PDGF-induced division of purified 0-2A progenitor cells (BrdU incorporation, total cell number); type: cell-based, rat
Method: The effect of NAC on generation of 0-2A progenitors and oligodendrocytes was examined in cultures of purified 0-2A progenitors (prepared as in Example IA) exposed to platelet-derived growth factor (PDGF), the best-characterized mitogen for 0-2A progenitor cells.
NAC enhances the division-inducing effects of platelet-derived growth factor (PDGF). Purified 0-2A progenitor cells were plated on PLL-coated coverslips at a density of 3,000 cells per cover slip and exposed to PDGF (a known mitogen for these cells) at the indicated concentrations. In addition, cells were exposed to NAC at a variety of concentrations; the effects of 1 mM NAC are illustrated.
As shown previously, induction of DNA synthesis and increases in cell number by PDGF was dose-dependent.

spinal ganglion neurons = assay: Neurite outgrowth of spinal ganglion neurons on laminin or L1; type: cell-based, rat; details: 24 hours, NGF added
From the text: To determine whether compounds that are able to raise intracellular thiol levels are able to enhance the efficacy of yet a different group of cellular signaling systems, we examined the effects of NAC supplementation on the promotion of neurite outgrowth by laminin and by L1. We first determined suboptimal concentrations for the effect of these cellular adhesion molecules, which were attached to tissue culture plastic surfaces in two different manners. Laminin was directly attached to the tissue culture surface with a cross-linking chemistry that preserves the structure of extracellular matrix molecules. L1 was attached as a dimer chimera, cross-linked by an Fc region from a human immunoglobulin molecule, by first adsorbing to the plastic surface an antibody directed against the human immunoglobulin Fc domain, followed by absorption of the L1 dimer to this surface. To promote neuronal survival, nerve growth factor (NGF), the survival factor of the spinal ganglion neurons used in this experiment, was also added at different concentrations. […] After 24 hours cultures were stained with an antibody to beta-III-tubulin and neurite length per neuron was measured.

embryonic kidney cells = assay: EGF-induced proliferation of embryonic kidney cells; type: cell-based, rat; details: all EGF concentrations examined
Method: FIG. 7 was analyzed as for FIG. 1(B), but used embryonic kidney cells. The cells grown in the 96-well trays were derived by dissociation of kidney rudiments from 11 days embryonic rats. Cells were grown in DMEM-BDS+/−epidermal growth factor (at the concentrations indicated)+/−NAC.

In the case of `CC(=O)N[C@@H](CS)C(=O)O` [NAC, N-acetylcysteine], the “more neurons than with NGF alone” value [1] is reported as 300-1000%, the “extent of survival, NAC in combination with Trolox” value (oligodendrocytes; 1 mM NAC + 10 μM Trolox, DMEM alone, 3 days) is reported as “highly significant increases (**)” and the “extent of survival, NAC in combination with Vitamin C” value (oligodendrocytes; 1 mM NAC + Vitamin C, DMEM alone, 3 days) is reported as “highly significant increases (**)”. The “extent of survival, NAC in combination with progesterone” value (oligodendrocytes; 1 mM NAC + progesterone, DMEM alone, 3 days, no RTK/RawTK agonists) was “highly significant increases (**)”, the “extent of survival with CNTF in presence of NAC versus CNTF by itself” value (oligodendrocytes; 1 mM NAC + various concentrations of CNTF, DMEM alone, 3 days) was “significant increases” and the “extent of survival with IGF-1 in presence of NAC versus IGF-1 by itself” value (oligodendrocytes; 1 mM NAC + various concentrations of IGF-1, DMEM alone, 3 days) was “significant increases”. The “cell survival with NAC alone” value (oligodendrocytes; 1 mM NAC alone, DMEM alone, 3 days) was “did not promote oligodendrocyte survival; also recorded: did not promote cell survival”, the “oligodendrocyte survival, cells switched directly to the indicated conditions” value (oligodendrocytes; Example I-(L), counted 3 days after switch) was “not effective at supporting oligodendrocyte survival” and the “Survival (as % of DMEM-BS control)” value (oligodendrocytes; NAC 1 mM alone) was 2 ± 1%. For the same molecule, the “extent of survival obtained with IFN-γ when NAC is applied together” value (oligodendrocytes; NAC 1 mM together with IFN-γ) was “dramatically enhanced the extent of survival obtained”, the “ability of PDGF to induce DNA synthesis (BrdU incorporation) on addition of NAC” value (0-2A progenitor cells; 1 mM NAC + PDGF) was “marked increase” and the “total number of cells generated by PDGF-induced cell division on addition of NAC” value (0-2A progenitor cells; 1 mM NAC + PDGF) was “marked increase”. For the same molecule, the “induction of cell division by NAC alone” value (0-2A progenitor cells; NAC alone, BrdU incorporation and total cell number) was “had no effect on the induction of cell division”, the “neurite length on L1 with NAC versus without NAC” value (spinal ganglion neurons; L1 2 micrograms/ml plating concentration) was “enhanced” and the “neurite length on laminin with NAC versus without NAC” value (spinal ganglion neurons; laminin 2 micrograms/ml plating concentration) was “enhanced”. The “effect of NAC on EGF-induced proliferation (cell number)” value (embryonic kidney cells) was “enhanced the proliferative effects of EGF”.

For `CC(=O)[C@H]1CC[C@H]2[C@@H]3CCC4=CC(=O)CC[C@]4(C)[C@H]3CC[C@]12C` [Progesterone, progesterone], the “Survival (as % of DMEM-BS control)” value (oligodendrocytes; Progesterone 6.3 ng/ml alone) was 4 ± 1% and the “Survival (as % of DMEM-BS control)” value (oligodendrocytes; Progesterone .63 ng/ml alone) was 0%.

With `Cc1c(C)c2c(c(C)c1O)CCC(C)(C(=O)O)O2` (centres unmarked) [Trolox] the “Survival (as % of DMEM-BS control)” value (oligodendrocytes; Trolox 100 uM alone) was 6 ± 5% and the “enhancement of survival factor (IFN-γ) activity compared with NAC” value (oligodendrocytes) was “similar, but lesser effects”.

`O=C1O[C@H]([C@@H](O)CO)C(O)=C1O` [Vitamin C] was tested, and the “Survival (as % of DMEM-BS control)” value (oligodendrocytes; 10 uM Vit C alone, Example I(J), DMEM alone, 3 days) was 2 ± 3%, the “Survival (as % of DMEM-BS control)” value (oligodendrocytes; VitC 10 uM alone, Example I(K)) was 1 ± 1% and the “enhancement of survival factor (IFN-γ) activity compared with NAC” value (oligodendrocytes) was “similar, but lesser effects”.

With “IGF-I: oligodendrocyte survival factor, growth factor” the “Survival (as % of DMEM-BS control)” value (oligodendrocytes; IGF-I 0.1 ng/ml, DMEM alone, 3 days) was 1 ± 1%.

For PDGF, the “induction of DNA synthesis and increases in cell number by PDGF” value (0-2A progenitor cells; PDGF at the indicated concentrations) was “dose-dependent”.

B1: interferon-γ: interferon-gamma, survival factor for oligodendrocytes (protein, UniProt P01579 24-161, looked up)
Interferon gamma: QDPYVKEAENLKKYFNAGHSDVADNGTLFLGILKNWKEESDRKIMQSQIVSFYFKLFKNFKDDQSIQKSVETIKEDMNVKFFNSNKKKRDDFEKLTNYSVTDLNVQRKAIHELIQVMAELSPAAKTGKRKRSQMLFRG
B1 was tested, and the “oligodendrocyte survival with interferon-γ” value (oligodendrocytes; 10, 50 or 500 u/ml, DMEM alone, 3 days, MTT staining) was “promoted oligodendrocyte survival in a dose-dependent manner”.
